{"source": "patent US9708359B2", "about": "“Pyrrolopyrimidine nucleosides and analogs thereof” (Chimerix, Inc., priority 2015, dated 2017)", "key": {"RAW cells": {"test_system": "RAW cells", "experiment": "Conversion of Compound 1 to Triphosphate in RAW Cells"}, "[1]": {"experiment": "Parallel cytotoxicity assay in MEF cells", "type": "cell-based", "conditions": "mouse, parallel to MCMV assay", "experimental": "(§1) Every antiviral assay included a parallel cytotoxicity assay with the same cells used for each virus, the same cell number, the same drug concentrations, and the same incubation times to provide the same drug exposure. To ensure that the cytotoxicity of all compounds could be compared directly, a standard neutral red uptake cytotoxicity assay for all compounds in confluent HFF cells with a 7 d incubation period was performed."}, "SARS": {"test_system": "SARS", "experiment": "organism not typed", "type": "cell-based, SARS CoV", "conditions": "Vero 76"}, "HHV-6B": {"test_system": "HHV-6B", "experiment": "organism not typed", "type": "cell-based", "conditions": "MOLT-3 cells"}, "[2]": {"experiment": "Solubility in water (rework study)", "type": "physicochemical", "experimental": "A brief rework study for compound 1, (containing 1.6% benzoic acid per AUC, HPLC) was executed in 10 vol of water (1 g in 10 mL):\nAll three experiments gave compound 1 with less than 0.1% benzoic acid (UAC, HPLC). The slurries were fluid, were easily stirred and filtration was fast. […] Without wishing to be bound by theory, a loss of NMT than 1% is expected (solubility 1 mg/mL). HPLC data for compound 1 were obtained with a method suitable for polar compounds using a Zorbax Eclipse Plus C18 column (water/ACN/TFA, 97.5/2.5/0.05). This is the same column used for steps 1 and 2."}, "[3]": {"experiment": "Cytotoxicity in lymphocyte assays, Akata cells", "type": "cell-based", "conditions": "human, parallel to EBV assay", "experimental": "as §1\nCytotoxicity in Lymphocyte Assays:\nCell viability in all assays with lymphocytes was assessed with a luminescent Cell Viability Assay. Briefly, assay plates were incubated at ambient temperature for 30 min then luminescent reagent was added to each well and the plates were mixed to lyse the cells. Plates were then incubated for at ambient temperature and the luminescence was quantified on a luminometer. Standard methods were used to calculate drug concentrations that inhibited the proliferation of cells by 50% (CC50).\nCell viability in all assays with lymphocytes was assessed with the CellTiter-Glo Luminescent Cell Viability Assay (Promega). […] Plates were then incubated for an additional 10 min at ambient temperature and the luminescence was quantified on a luminometer. […]"}, "EBV": {"test_system": "EBV", "experiment": "DNA quantitation assay for EBV", "type": "cell-based, Epstein-Barr virus", "conditions": "human gammaherpesvirus 4, Akata cells", "experimental": "DNA Quantitation Assays for EBV and HHV-6B:\nAssays for EBV were performed in Akata cells that were induced to undergo a lytic infection with goat anti-human IgG antibody by standard methods. Experimental compounds were diluted in plates. Akata cells were added to the plates and incubated. For HHV-6, compounds were serially diluted then uninfected HSB-2 or Molt-3 cells were added to each well. Infection was initiated by adding HHV-6A infected HSB-2 cells, or HHV-6B infected Molt-3 cells, and incubated for 7 d at 37° C. For all assays, denaturation buffer was added to each well to denature the DNA and an aliquot was aspirated through a nylon membrane. The membranes were then allowed to dry before equilibration in DIG. Specific digoxigenin (DIG)-labeled probes were prepared for each virus according to the manufacturer's protocol. Detection of specifically bound DIG probe was performed with anti-DIG antibody using the manufacturer's protocol. An image of the photographic film was captured and quantified and compound concentrations sufficient to reduce the accumulation of viral DNA by 50% (EC50), were interpolated from the experimental data.\nAssays for EBV were performed in Akata cells that were induced to undergo a lytic infection with 50 μg/mL of a goat anti-human IgG antibody by standard methods. […]"}, "[4]": {"conditions": "RAW cells incubated with 0.5 μM Compound 1 for 48 hours"}, "[5]": {"conditions": "RAW cells incubated with 1 μM Compound 1 for 48 hours"}, "[6]": {"conditions": "RAW cells incubated with 5 μM Compound 1 for 48 hours"}, "[7]": {"conditions": "RAW cells incubated with 10 μM Compound 1 for 48 hours"}}, "note": "Like-named read-outs stand apart in the source and are kept apart here.", "data": [{"smiles": "Cc1nc(N)c2c(C(N)=O)cn([C@@H]3O[C@H](CO)[C@@H](O)[C@H]3O)c2n1", "note": "[Compound 1, 4-amino-7-((2R,3R,4S,5R)-3,4-dihydroxy-5-(hydroxymethyl)tetrahydrofuran-2-yl)-2-methyl-7H-pyrrolo[2,3-d]pyrimidine-5-carboxamide]", "values": [{"measurement": "Concentration (ng/1 × 10^6 cells)", "setting": "RAW cells; [4]", "result": 0.17, "unit": "ng/1 × 10^6 cells"}, {"measurement": "Concentration (pmol/1 × 10^6 cells)", "setting": "RAW cells; [4]", "result": 0.53, "unit": "pmol/1 × 10^6 cells"}, {"measurement": "Concentration (ng/1 × 10^6 cells)", "setting": "RAW cells; [5]", "result": 0.13, "unit": "ng/1 × 10^6 cells"}, {"measurement": "Concentration (pmol/1 × 10^6 cells)", "setting": "RAW cells; [5]", "result": 0.40, "unit": "pmol/1 × 10^6 cells"}, {"measurement": "Concentration (ng/1 × 10^6 cells)", "setting": "RAW cells; [6]", "result": 0.65, "unit": "ng/1 × 10^6 cells"}, {"measurement": "Concentration (pmol/1 × 10^6 cells)", "setting": "RAW cells; [6]", "result": 2.01, "unit": "pmol/1 × 10^6 cells"}, {"measurement": "Concentration (ng/1 × 10^6 cells)", "setting": "RAW cells; [7]", "result": 1.02, "unit": "ng/1 × 10^6 cells"}, {"measurement": "Concentration (pmol/1 × 10^6 cells)", "setting": "RAW cells; [7]", "result": 3.15, "unit": "pmol/1 × 10^6 cells"}, {"measurement": "CC50", "setting": "[1]", "result": "> 100", "unit": "µM"}, {"measurement": "CC50", "setting": "Vero76; African green monkey", "result": "> 100", "unit": "µM"}, {"measurement": "CC50", "setting": "Vero76; Vero76 cells, parallel to DENV-2 assay", "result": "> 100", "unit": "µM"}, {"measurement": "CC50", "setting": "Vero76; Vero76 cells, parallel to ENTV-71 assay", "result": "> 100", "unit": "µM"}, {"measurement": "CC50", "setting": "Vero76; Vero76 cells, parallel to POV-3 assay", "result": "> 100", "unit": "µM"}, {"measurement": "CC50", "setting": "Vero76; Vero76 cells, parallel to WNV assay", "result": "> 100", "unit": "µM"}, {"measurement": "EC50", "setting": "SARS", "result": 37, "unit": "µM"}, {"measurement": "EC50", "setting": "HHV-6B", "result": 39.7, "unit": "µM"}, {"measurement": "solubility", "setting": "[2]", "result": 1000, "unit": "µg/mL"}, {"measurement": "CC50", "setting": "[3]", "result": "> 60", "unit": "µM"}, {"measurement": "EC50", "setting": "EBV", "result": 7.15, "unit": "µM"}]}]}
